Where two headings read alike, the source gives them in different places. Starred links: 1 amine or outer side, 2 acyl side, 3 side chain; linkers in the order of their positions; H or OH if unused. Positions of bridges follow the written chain, without caps; N, C: chain ends. Non-standard residues stand in square brackets, D forms with d. Residues, ends and D or L forms follow the SMILES beside them. *: point of attachment. NMeF = CN[C@@H](Cc1ccccc1)C(=O)O; NMeI = CC[C@H](C)[C@H](NC)C(=O)O; NMeβAla = CN(CCC(=O)[*:2])[*:1]; NMeL = CN[C@@H](CC(C)C)C(=O)O; NMeA = CN[C@@H](C)C(=O)O; Piperidide = C1CCN(*)CC1; dNMeA = CN[C@H](C)C(=O)O; NPrGly = CCCNCC(=O)O; Sar = CNCC(=O)O; tBu = CC(C)(C)*
How the values were obtained:
[1] = Metabolic stability in human hepatic microsome; type: in vitro ADME; details: microsomes
[2] = PAMPA (parallel artificial membrane permeability assay); type: in vitro ADME; details: PAMPA
How it was run: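 Artificial membrane was 10% (w/v) egg lecithin plus 0.5% (w/v) cholesterol in dodecane on a PVDF filter. A 10 mM DMSO stock was added at 0.5% (v/v) to donor buffer (50 mM MOPSO, pH 6.5, 5.0% glycocholic acid). After 18 h at 37 °C, LC/MS or LC/UV gave donor and acceptor levels for Pe.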

[3] = Mouse PK test of peptides (intravenous and oral administration); details: male, C57BL/6J, in vivo, 20 mg/kg
[4] = pH 7.4, human hepatic microsome, NADPH(+), read-out: CL NADPH(+)
[5] = membrane permeation rate (Pe), 50 mM MOPSO buffer pH 6.5 with 5.0% glycocholic acid, 37° C., 18 hours, read-out: iPAMPA Pe

SMILES	microsomal CLint at 1 uM [1, 4] [µL/min/mg]	Papp at 18 hours, 50 µM [2, 5] [×10⁻⁶ cm/s]	AUC ([3]; iv) [ng·h/mL]	C0 ([3]; iv) [ng/mL]	Vd ([3]; iv) [L/kg]	clearance ([3]; iv) [mL/min/kg]	half-life ([3]; iv) [h]	AUC ([3]; po) [ng·h/mL]	CL/F ([3]; po) [mL/min/kg]	Cmax ([3]; po) [ng/mL]	Tmax ([3]; po) [h]	bioavailability ([3]; po) [%]	half-life ([3]; po) [h]	microsomal CLint at 1 uM ([1]; human, pH 7.4, CL NADPH(+)) [µL/min/mg]	Papp at 18 hours, 50 µM ([2]; pH 6.5) [×10⁻⁶ cm/s]
CCCN1CC(=O)N(C)[C@@H](CC(C)C)C(=O)N[C@@H](COC(C)(C)C)C(=O)N(C)[C@@H](CC(C)C)C(=O)N[C@H](C(=O)N2CCCCC2)CC(=O)N[C@H](C)C(=O)N(C)[C@@H](C)C(=O)N(C)[C@@H](Cc2ccccc2)C(=O)N(C)[C@@H](CC(C)C)C(=O)N[C@@H]([C@@H](C)O)C1=O [DP-547] ([dA][NMeA][NMeF][NMeL]T[NPrGly][NMeL]S(tBu)[NMeL]D-Piperidide; lactam N-10)	33	34	37200	44500	0.541	8.98	1.1	4510	74.6	1470	1	12.1	1.84	–	–
CC[C@H](C)[C@@H]1NC(=O)CCN(C)C(=O)C[C@@H](C(=O)N2CCCCC2)NC(=O)[C@H](CC(C)C)N(C)C(=O)[C@H](Cc2ccccc2)NC(=O)[C@H](CC(C)C)N(C)C(=O)[C@H](CC(C)C)N(C)C(=O)[C@H](C)N(C)C(=O)[C@H](CC(C)C)N(C)C(=O)[C@H]([C@@H](C)O)NC(=O)[C@H](Cc2ccccc2)N(C)C(=O)[C@H](C)N(C)C(=O)[C@H](CC(C)C)N(C)C1=O [DP-958] ([NMeβAla]I[NMeL][NMeA][NMeF]T[NMeL][NMeA][NMeL][NMeL]F[NMeL]D-Piperidide; lactam N-13)	31	0.54	–	–	–	–	–	–	–	–	–	–	–	–	–
CC[C@H](C)[C@H](NC(=O)[C@H](Cc1ccccc1)N(C)C(=O)[C@H](Cc1ccccc1)N(C)C(=O)[C@@H]1CC(=O)N(C)CCC(=O)N[C@@H]([C@@H](C)CC)C(=O)N(C)[C@@H](Cc2ccccc2)C(=O)N(C)[C@@H](CC(C)C)C(=O)N[C@@H]([C@@H](C)O)C(=O)N(C)CC(=O)N(C)[C@@H](CC(C)C)C(=O)N[C@@H](C(C)C)C(=O)N(C)[C@@H](CC(C)C)C(=O)N1)C(=O)N1CCCCC1 [DP-961] ([NMeβAla]I[NMeF][NMeL]T[Sar][NMeL]V[NMeL]D[NMeF][NMeF]I-Piperidide; lactam N-10)	33	0.57	–	–	–	–	–	–	–	–	–	–	–	–	–
CC[C@H](C)[C@@H]1NC(=O)[C@H](C)N(C)C(=O)[C@H](CC(C)C)N(C)C(=O)[C@H](Cc2ccccc2)NC(=O)[C@H](CC(C)C)N(C)C(=O)[C@H](CC(C)C)N(C)C(=O)[C@H](C)N(C)C(=O)[C@H](Cc2ccccc2)N(C)C(=O)[C@@H](C)N(C)C(=O)C[C@@H](C(=O)N[C@H](C(=O)N2CCCCC2)[C@@H](C)CC)NC(=O)[C@H](CC(C)C)N(C)C(=O)[C@H]([C@@H](C)O)NC(=O)[C@H](COC(C)(C)C)NC1=O [DP-963] ([dNMeA][NMeF][NMeA][NMeL][NMeL]F[NMeL][NMeA]IS(tBu)T[NMeL]DI-Piperidide; lactam N-13)	18	0.1	–	–	–	–	–	–	–	–	–	–	–	–	–
CC[C@H](C)[C@@H]1NC(=O)[C@H](Cc2cccc(Cl)c2)N(C)C(=O)[C@H](CC(C)C)N(C)C(=O)C[C@@H](C(=O)N2CCCCC2)NC(=O)[C@H](CC(C)C)N(C)C(=O)[C@H](CC(C)C)N(C)C(=O)[C@H](CC(C)C)NC(=O)[C@H](C)N(C)C(=O)[C@@H](NC(=O)[C@H](CC(C)C)N(C)C(=O)[C@@H]2CCCN2C(=O)CO)CCCCNC1=O [DP-964, ^HOGly-Pro-MeLeu-*Lys-MeAla-Leu-MeLeu-MeLeu-Asp-piperidine-MeLeu-MePhe(3-Cl)-Ile* (cyclized at two * sites)]	–	–	–	–	–	–	–	–	–	–	–	–	–	38	8.9
CC[C@H](C)[C@H](NC(=O)[C@@H]1CCCN1C(=O)[C@@H]1CC(=O)N[C@@H](C)C(=O)N[C@@H](CC(C)C)C(=O)N(C)[C@@H]([C@@H](C)CC)C(=O)N[C@@H](C(C)C)C(=O)N(C)[C@@H](Cc2ccccc2)C(=O)N[C@@H](CC(C)C)C(=O)N(C)[C@@H](Cc2ccccc2)C(=O)N1)C(=O)N1CCCCC1 [DP-965] (AL[NMeI]V[NMeF]L[NMeF]DPI-Piperidide; lactam N-8)	56	16	193000	171000	0.403	1.73	2.99	13700	28.9	1920	2.67	7.12	2.99	–	–

— patent publication US9409952B2, “Peptide-compound cyclization method” (Chugai Seiyaku Kabushiki Kaisha, priority 2011, dated 2016)
